# Assay results: ChEMBL document CHEMBL1128808, “Dioxolane cytosine nucleosides as anti-hepatitis B agents” (Bioorg Med Chem Lett, 1995)
# Assays:
# Hepatoma cell line = assay: Antiviral activity against hepatitis B virus in human hepatoma cell line (2.2.15 cells); type: functional, cell-based
# CCRF-CEM [1] = assay: Compound was evaluated for cytotoxicity by inhibition of mitochondrial DNA synthesis; type: functional, cell-based; details: Homo sapiens
# CCRF-CEM [2] = assay: Cytotoxicity in H1 CEM cells; type: functional, cell-based; details: Homo sapiens
# [3] = Selectivity measured as the ratio between IC50 value and EC50 value; type: functional
SMILES,EC50 (Hepatoma cell line) [µM],IC50 (CCRF-CEM [1]) [µM],IC50 (CCRF-CEM [2]) [µM],Selectivity [3]
Nc1ccn([C@H]2CO[C@H](CO)O2)c(=O)n1,> 5,> 50,> 50,–
Nc1ccn([C@@H]2CS[C@H](CO)O2)c(=O)n1 [LAMIVUDINE],0.01,50,50,–
O=c1[nH]c(=O)n([C@H]2CO[C@@H](CO)O2)cc1Br,> 5,–,–,–
O=c1[nH]c(=O)n([C@H]2CO[C@@H](CO)O2)cc1F,> 5,–,–,–

# Continued, in another order:
EC50 (Hepatoma cell line) [µM],SMILES,IC50 (CCRF-CEM [1]) [µM],IC50 (CCRF-CEM [2]) [µM],Selectivity [3]
> 20,O=c1ccn([C@H]2CO[C@@H](CO)O2)c(=O)[nH]1,–,–,–
5,Nc1ccn([C@@H]2CO[C@@H](CO)O2)c(=O)n1,–,–,–
0.01,Nc1ccn([C@H]2CO[C@@H](CO)O2)c(=O)n1,> 10,2.4,240
0.0005,Nc1ccn([C@@H]2CO[C@H](CO)O2)c(=O)n1 [TROXACITABINE],> 1,0.056,–
